Patent US4975433A, “Aminomethyl derivatives of biologically active substances and enhanced delivery thereof across topical membranes” (priority 1989, dated 1990)
≈ marks a conversion by molar mass, not a printed value. Where “and” joins values, the source holds several entries; their conditions need not be identical. Equal entries are not always repeated. Marks after values point to notes of the source that are not given here. Each block holds one molecule with its values, some of them ahead of it.

Legend:
[1] = half-lives of hydrolysis of cytosine and 5-fluorocytosine derivatives in phosphate buffer; conditions: for half-life: phosphate buffer; for pH dependence of hydrolysis rate: basic pH
[2] = solubilities of prodrugs and parent drugs in selected solvents (Example 8); conditions: for trend in IPM solubility: NMR of neat filtrates, UV
[3] = stability of the bases in water, isopropyl myristate and moisture (NMR, TLC); assay type: physicochemical; conditions: for qualitative order of stability to atmospheric moisture: IPM solution, NMR; for stability in IPM: 24 hours after sonication for 3 hours; for degraded at 48 h: isopropyl myristate, atmospheric moisture, room temperature, two days, read-out: decomposition of base prodrugs in IPM filtrates
Method: All the suspensions or solutions were prepared by sonicating mixtures of the drug or prodrugs in the appropriate solvent in sealed flasks for 3 hr. The sealed solutions or suspensions that resulted were allowed to sit at room temperature for 24 hr, then they were briefly (15 sec.) vortexed and 0.50 ml samples were removed and applied to the membranes (area=4.9 cm^2). After an additional 24 hr the remaining sealed suspensions of the prodrugs were filtered, the filtrates and residues were analyzed by inspection of their NMR spectra and TLC to determine if any decomposition of the prodrugs had taken place (none had), and the filtrates were analyzed by UV spectroscopy to determine if the amount of prodrug still in solution corresponded to the solubilities determined in separate experiments (they did). The filtrates were analyzed neat while the residues were dissolved in CDCl3 and the spectra were analyzed for the appearance of the C8 ---H absorption of theophylline at δ7.77 and the C6 ---H absorption of 5-FU at δ7.7. TLC analyses were run using ether as the eluents. The remaining suspensions of the parent drugs were also filtered and the filtrates were analyzed by UV spectroscopy to determine if the amount of drug still in solution corresponded to the solubilities determined in separate experiments (they did).
The derivatives are not stable in the presence of water. […] NMR experiments also supported the low stability of the derivatives in water. Solutions of the bases were prepared in dry DMSO-d6 and then D2 O was added stepwise to the solutions. […] Similar, decomposition of the bases was also observed in other protic solvents such as methanol and propylene glycol.
On the other hand, the stability of the bases in IPM was variable.
When the IPM filtrates, which were used to determine the IPM solubilities of II and III were exposed to atmospheric moisture at room temperature for two days, 50-80% decomposition of the base prodrugs in solution occurred and precipitation of theophylline resulted as determined by analysis of NMR spectra of the solutions and precipitates. The IPM solutions of the other bases eventually decomposed 1-10% upon prolonged exposure (two weeks) to atmospheric moisture. Although no quantitative data were determined, the qualitative order of stability of the theophylline bases to exposure to atmospheric moisture in IMP solution was V=VI>>IV>III>II,as determined by analysis of NMR spectra of their IPM solutions and precipitates from IPM solutions.

[4] = lipid and aqueous solubilities of 5-FC and its derivatives; assay type: physicochemical; conditions: for IPM solubility relative to other compound: XIV vs 5-FC molar basis, XIIb vs XIIa; for solubility / Solubility, water: distilled water (pH 5.5), approximate, decomposing; for solubility at 48 h / Solubility, IPM: isopropyl myristate; for solubility at 48 h: organic solvent or mixture, read-out: Solubility, IPM; for Solubility, IPM: 2880 min
[5] = mouse; for Kp, initial phase: 100000 uM
Method: The diffusion experiments were performed in triplicate for each compound. Three female, hairless mice were sacrificed by cervical dislocation, and the entire dorsal skin removed by blunt dissection from the underlying tissues. The skins were secured with a rubber gasket to the diffusion cell, with the dermis in contact with the receptor phase. The receptor side of the cell was filled with isotonic phosphate buffer (pH 73 at 32°, 0.05 M, μ=0.15) with 1% formaldehyde added to inhibit microbial growth. The receptor phase was kept at a constant temperature of 32° and was stirred magnetically.
The donor phases were applied as suspensions (0.5 ml, 0.1 M) to the skin surface. […] Each sample was replaced by an equal amount of fresh buffer.
These last two steps were used to determine the mass balance. This part of the diffusion cell study is termed the first application.
Samples were obtained using the same schedule described above.
The slopes for each phase of the plotted lines were obtained by linear regression analysis (r>0.990); the slopes were then divided by the surface area of the diffusion cells (4.9 cm^2) to obtain a value for flux (J) in mg/cm^2 /h. The reported fluxes are the average flux of the three diffusion cells.

[6] = lipid and aqueous solubilities of 5-IDC and its prodrugs; assay type: physicochemical; conditions: for solubility at 48 h: isopropyl myristate, organic solvent or mixture, read-out: Solubility, IPM
Method: The approximate aqueous solubilities were determined by the addition of 100 mg of solid to 1 ml distilled water (pH 5.5). Water was added until all the solid dissolved.
The lipid solubilities of 5-iodo-2'-deoxycytidine and its N-Mannich base prodrugs were determined in isopropyl myristate. Three suspensions of the drug or prodrugs were stirred for 48 hours and then filtered. The filtrates were then diluted with either methanol, for the parent drug or dry acetonitrile, for the N-Mannich base prodrugs. The concentration of compound in solution was determined by monitoring the UV absorption at 294 nm (ε=5.79×10^3 1/mole) for 5-IDC, 333 nm (ε=2.46×10^4) for the formamidine derivative and 296 nm for the derivatives. The aqueous solubilities were obtained as described above.

[7] = flux of theophylline in PG after first application of 5-IDC or prodrug (second application); assay type: in vitro ADME, hairless mice
Method: A suspension of theophylline in PG (Th/PG; 0.5 ml, 0.4M) was then applied to each diffusion cell. […] This phase of the diffusion cell experiment is labelled the second application.
The slopes for each phase of the plotted lines were obtained by linear regression analysis; the slopes were then divided by the surface area of the diffusion cells (4.9 cm^2) to obtain a value for flux (J) in mg/cm^2 /h. The reported fluxes are the average flux for the three cells.

[8] = pH 7.1, Half-life of hydrolysis, cytosine derivatives
[9] = isopropyl myristate, organic solvent or mixture, Solubility, IPM, stirred at room temperature 24 hr
[10] = water, pH 7, water, Solubility, water (apparent)
[11] = pH 7.1, Half-life of hydrolysis, 5-FC derivatives
[12] = isopropyl myristate, organic solvent or mixture, Solubility, IPM, suspensions sonicated for 3 hr

Compound: O=c1nc(NCN2CCOCC2)ccn1CN1CCOCC1 [IXb, Bis-N^4,1-(4'-morpholinyl)methylcytosine hydrate]
half-life [1, 8]: 9.72 min

Compound: CCCN(CCC)Cn1cnc2c1c(=O)n(C)c(=O)n2C [IV, 7-(Dipropylamino)methyltheophylline]
trend in IPM solubility ([2]; IPM): III>IV>VI>II>V | solubility [2, 9]: 27600 µg/mL (≈ 94.1 mM) | solubility [2, 10]: > 100000 µg/mL | qualitative order of stability to atmospheric moisture [3]: V=VI>>IV>III>II | stability in IPM [3]: stable in solution but the IPM insoluble material was theophylline

Compound: O=c1nc(NCN2CCCCC2)ccn1CN1CCCCC1 [VIII, Bis-N^4,1-(1'-piperidinyl)methylcytosine]
half-life [1, 8]: 1.42 min

Compound: Cn1c(=O)c2[nH]cnc2n(C)c1=O [I]
solubility ([2]; isopropyl myristate, organic solvent or mixture): 95 µg/mL (≈ 0.527 mM) | solubility ([2]; propylene glycol, organic solvent or mixture): 16200 µg/mL (≈ 89.9 mM)

Compound: CN(C)Cn1cnc2c1c(=O)n(C)c(=O)n2C [II]
solubility ([2]; isopropyl myristate, organic solvent or mixture, Solubility, IPM, both sonicated 3 hr and stirred 24 hr): 7600 µg/mL (≈ 32 mM) | solubility [2, 10]: > 100000 µg/mL | degraded at 48 h [3]: 50 to 80%

Compound: CN1CCN(CNc2ccn(CN3CCN(C)CC3)c(=O)n2)CC1 [XI, Bis-N^4,1-(4'-methyl-1'-piperazinyl)methylcytosine hydrate]
half-life [1, 8]: 27.2 min

Compound: O=c1c(F)cn(CN2CCOCC2)c(=O)n1CN1CCOCC1 [VIII]
solubility [2, 12]: 11800 µg/mL (≈ 35.9 mM) | solubility [2, 10]: > 100000 µg/mL

Compound: O=c1nc(NCN2CCCCC2)c(F)cn1CN1CCCCC1 [XIIa, bis-N^4,1-(1'-piperidinyl)methyl-5-fluorocytosine]
Solubility, water [4]: 10 mg/ml and 0.03 M | Solubility, IPM ([4]; ±SD): 5.0 (0.9) mg/ml × 10^2 | Solubility, IPM [4]: 1.6 M(× 10^4) | half-life [1, 11]: 0.89 min | Kp, steady-state phase [5]: 1671 cm/h (× 10^3)

Compound: Cn1c(=O)c2c(ncn2CN2CCCC2)n(C)c1=O [VI, 7-(Pyrrolidyl)methyltheophylline]
trend in IPM solubility ([2]; IPM): III>IV>VI>II>V | solubility [2, 12]: 10700 µg/mL (≈ 40.6 mM) | solubility [2, 10]: > 100000 µg/mL | qualitative order of stability to atmospheric moisture [3]: V=VI>>IV>III>II | stability in IPM [3]: stable in IPM either in the solid phase or in solution

Compound: Cn1c(=O)c2c(ncn2CN2CCOCC2)n(C)c1=O [V, 7-(4'-Morpholinyl)methyltheophylline]
Solubility, water (apparent) ([2]; 1.0 ml water (pH 7.0) added to 100 mg, sonicated 10 sec, not accurate, rapid decomposition): > 100000 µg/mL | trend in IPM solubility ([2]; IPM): III>IV>VI>II>V | solubility [2, 12]: 1300 µg/mL (≈ 4.65 mM) | solubility [2, 10]: ~100000 µg/mL (≈ 358 mM) | qualitative order of stability to atmospheric moisture [3]: V=VI>>IV>III>II | stability in IPM [3]: stable in IPM either in the solid phase or in solution

Compound: CCN(CC)Cn1cnc2c1c(=O)n(C)c(=O)n2C [III, 7-(Diethylamino)methyltheophylline]
trend in IPM solubility ([2]; IPM): III>IV>VI>II>V | solubility [2, 9]: 32500 µg/mL (≈ 122 mM) | solubility [2, 10]: > 100000 µg/mL | qualitative order of stability to atmospheric moisture [3]: V=VI>>IV>III>II | stability in IPM [3]: stable in solution but the IPM insoluble material was theophylline | degraded at 48 h [3]: 50 to 80%

Compound: CN(C)CNc1ccn(CN(C)C)c(=O)n1 [X, Bis-N^4,1-(dimethylamino)methylcytosine hydrate]
half-life [1, 8]: 1 min

Compound: CN(C)CNc1nc(=O)n(CN(C)C)cc1F [XIII, Bis-N^4,1-(dimethylamino)methyl-5-fluorocytosine hydrate]
solubility [4]: > 100000 µg/mL and > 400000 µM | solubility at 48 h [4]: 950 µM | solubility at 48 h ([4]; ±SD): 230 µg/mL | pH dependence of hydrolysis rate [1]: hydrolyzed slower at basic pH | half-life ([1]; pH 6, Half-life of hydrolysis): 0.51 min | half-life [1, 11]: 0.74 min | half-life ([1]; pH 8, Half-life of hydrolysis): 0.87 min | Kp, steady-state phase [5]: 365 cm/h (× 10^3) | Kp, initial phase [5]: 149 cm/h (× 10^3)

Now from value to molecule, other results behind:

IPM solubility relative to other compound [4]: approximately 230 times | solubility [4]: > 100000 µg/mL and > 300000 µM | solubility at 48 h [4]: 9100 µM | solubility at 48 h ([4]; ±SD): 2710 µg/mL | half-life [1, 11]: 0.1 min
Compound: CCN(CC)CNc1nc(=O)n(CN(CC)CC)cc1F [XIV, Bis-N^4,1-(diethylamino)methyl-5-fluorocytosine hydrate]

solubility [4]: > 100000 µg/mL and > 300000 µM | solubility at 48 h [4]: 220 µM | solubility at 48 h ([4]; ±SD): 71 µg/mL | pH dependence of hydrolysis rate [1]: hydrolyzed slower at basic pH | half-life ([1]; pH 6, Half-life of hydrolysis): 20.1 min | half-life [1, 11]: 26.3 min | half-life ([1]; pH 8, Half-life of hydrolysis): 28.5 min | Kp, steady-state phase [5]: 919 cm/h (× 10^3) | Kp, initial phase [5]: 67.3 cm/h (× 10^3)
Compound: CN1CCN(CNc2nc(=O)n(CN3CCN(C)CC3)cc2F)CC1 [XVII, Bis-N^4,1-(4'-methyl-1'piperazinyl)methyl-5-fluorocytosine hydrate]

solubility at 48 h [6]: 62 µM | solubility at 48 h ([6]; ±SD): 28 µg/mL | solubility ([6]; pH 5.5, water, apparent): 100000 µg/mL and 222000 µM | X-intercept ([7]; first application in IPM): 1.0 h | Flux of theophylline from PG after first application ([7]; first application in IPM, Th/PG 0.4 M, ±SD): 192 (38) mg/cm^2 /h × 10^3
Compound: O=c1nc(NCN2CCCCC2)c(I)cn1[C@H]1C[C@H](O)[C@@H](CO)O1 [XXIIa, N^4-(1"-piperidinyl)methyl-5-iodo-2'-deoxycytidine hydrate]
effect on flux of theophylline ([7]; vs IPM): Not significantly different from flux after first application

solubility [4]: > 100000 µg/mL and > 300000 µM | solubility at 48 h [4]: 610 µM | solubility at 48 h ([4]; ±SD): 180 µg/mL | pH dependence of hydrolysis rate [1]: faster | half-life ([1]; pH 6, Half-life of hydrolysis): 1.01 min | half-life [1, 11]: 1.05 min | half-life ([1]; pH 8, Half-life of hydrolysis): 0.66 min
Compound: O=c1nc(NCN2CCCC2)c(F)cn1CN1CCCC1 [XV, Bis-N^4,1-(1'-pyrrolidyl)methyl-5-fluorocytosine hydrate]

solubility [4]: 25000 µg/mL and 80000 µM | solubility at 48 h [4]: 350 µM | solubility at 48 h ([4]; ±SD): 180 µg/mL | pH dependence of hydrolysis rate [1]: hydrolyzed slower at basic pH | half-life ([1]; pH 6, Half-life of hydrolysis): 1.19 min | half-life [1, 11]: 9.1 min | half-life ([1]; pH 8, Half-life of hydrolysis): 34.2 min | Kp, steady-state phase [5]: 213 cm/h (× 10^3) | Kp, initial phase [5]: 73.9 cm/h (× 10^3)
Compound: O=c1nc(NCN2CCOCC2)c(F)cn1CN1CCOCC1 [XVI, Bis-N^4,1-(4'-morpholinyl)methyl-5-fluorocytosine hydrate]

IPM solubility relative to other compound [4]: twice | Solubility, water [4]: 25 mg/ml and 0.08 M | Solubility, IPM ([4]; ±SD): 12.0 (0.5) mg/ml × 10^2 | Solubility, IPM [4]: 3.7 M(× 10^4) | Half-life of hydrolysis, 5-FC derivatives ([1]; pH 7.1 phosphate buffer 0.05 M, 24°): 0.90(0.01) min and 0.90 min | half-life ([1]; pH 6, Half-life of hydrolysis): 0.86 min | half-life ([1]; pH 8, Half-life of hydrolysis): 0.79 min | Kp, steady-state phase [5]: 716 cm/h (× 10^3) | Kp, initial phase [5]: 174 cm/h (× 10^3)
Compound: O=c1nc(NCN2CCCCC2)c(F)cn1CN1CCCCC1 [XIIb, Bis-N^4,1-(1'-piperidinyl)methyl-5-fluorocytosine]
